ChEMBL document CHEMBL4219088, “Novel 4-aminoquinazoline derivatives induce growth inhibition, cell cycle arrest and apoptosis via PI3Kα inhibition” (Bioorg Med Chem, 2018)
Values belong to the compound of their own block, whether it stands above or below them. Calls of active or inactive are those of the source. The rule behind the calls is not given here.

Tests used:
[1] = tested on: MDA-MB-231; assay: Antiproliferative activity against human MDA-MB-231 cells after 72 hrs by sulforhodamine B assay; type: functional, cell-based; settings: MDA-MB-231, 72 h
[2] = tested on: HCT-116; assay: Antiproliferative activity against human HCT116 cells after 72 hrs by sulforhodamine B assay; type: functional, cell-based; settings: HCT-116, 72 h
[3] = tested on: SNU-638; assay: Antiproliferative activity against human SNU638 cells after 72 hrs by sulforhodamine B assay; type: functional, cell-based; settings: SNU-638, 72 h
[4] = tested on: A549; assay: Antiproliferative activity against human A549 cells after 72 hrs by sulforhodamine B assay; type: functional, cell-based; settings: A549, 72 h
[5] = tested on: MCF7; assay: Antiproliferative activity against human MCF7 cells after 72 hrs by sulforhodamine B assay; type: functional, cell-based; settings: MCF7, 72 h
[6] = tested on: SK-HEP1; assay: Antiproliferative activity against human SKHEP1 cells after 72 hrs by sulforhodamine B assay; type: functional, cell-based; settings: SK-HEP1, 72 h
[7] = molecular target: Phosphatidylinositol 4,5-bisphosphate 3-kinase catalytic subunit alpha isoform (Homo sapiens) (UniProt P42336); assay: Inhibition of PI3Kalpha in human HCT116 cells assessed as reduction in Akt phosphorylation at Ser473 residues at 0.5 to 2 uM after 24 hrs by Western blot analysis; type: cell-based
[8] = tested on: HCT-116; assay: Induction of apoptosis in human HCT116 cells assessed as late apoptotic cells at 4 uM after 48 hrs by Annexin V-FITC/propidium iodide staining based flow cytometry (reference value: 1.43%); type: functional
[9] = tested on: HCT-116; assay: Induction of apoptosis in human HCT116 cells assessed as increase in cleaved PARP level at 4 uM after 48 hrs by Western blot analysis; type: functional, cell-based
[10] = molecular target: Phosphatidylinositol 4,5-bisphosphate 3-kinase catalytic subunit alpha isoform (Homo sapiens) (UniProt P42336); assay: Inhibition of PI3Kalpha in human HCT116 cells assessed as reduction in GSK3beta phosphorylation at 0.5 to 2 uM after 24 hrs by Western blot analysis; type: cell-based
[11] = molecular target: Phosphatidylinositol 4,5-bisphosphate 3-kinase catalytic subunit alpha isoform (Homo sapiens) (UniProt P42336); assay: Inhibition of PI3Kalpha in human HCT116 cells assessed as reduction in Akt phosphorylation at Ser473 residues after 24 hrs by Western blot analysis; type: cell-based
[12] = tested on: HCT-116; assay: Cell cycle arrest in human HCT116 cells assessed as accumulation at G2/M phase at 1 uM after 24 hrs by propidium iodide staining based flow cytometry (reference value: 22.24%); type: functional
[13] = tested on: HCT-116; assay: Induction of apoptosis in human HCT116 cells assessed as increase in cleaved caspase 3 level at 4 uM after 48 hrs by Western blot analysis; type: functional, cell-based
[14] = molecular target: PI3K p110 beta/p85 alpha (Homo sapiens, UniProt P42338); assay: Inhibition of N-terminal His6-tagged recombinant full-length PI3Kbeta (unknown origin)/untagged recombinant full length p85alpha expressed in baculovirus infected Sf21 insect cells by ELISA
[15] = tested on: HCT-116; assay: Induction of apoptosis in human HCT116 cells assessed as early apoptotic cells at 1 uM after 48 hrs by Annexin V-FITC/propidium iodide staining based flow cytometry (reference value: 3.72%); type: functional
[16] = molecular target: Phosphatidylinositol 4,5-bisphosphate 3-kinase catalytic subunit alpha isoform (Homo sapiens) (UniProt P42336); assay: Inhibition of PI3Kalpha phosphorylation in human HCT116 cells at 0.5 to 2 uM after 24 hrs by Western blot analysis; type: cell-based
[17] = tested on: HCT-116; assay: Induction of apoptosis in human HCT116 cells assessed as necrotic cells at 1 uM after 48 hrs by Annexin V-FITC/propidium iodide staining based flow cytometry (reference value: 0.79%); type: functional
[18] = tested on: HCT-116; assay: Downregulation of cyclin D1 protein expression in human HCT116 cells at 0.5 to 2 uM after 24 hrs by Western blot analysis; type: functional, cell-based
[19] = tested on: HCT-116; assay: Cell cycle arrest in human HCT116 cells assessed as accumulation at G0/G1 phase at 1 uM after 24 hrs by propidium iodide staining based flow cytometry (reference value: 44.01%); type: functional
[20] = tested on: HCT-116; assay: Cell cycle arrest in human HCT116 cells assessed as accumulation at subG1 phase at 0.5 uM after 24 hrs by propidium iodide staining based flow cytometry (reference value: 2.25%); type: functional
[21] = tested on: HCT-116; assay: Induction of apoptosis in human HCT116 cells assessed as necrotic cells at 4 uM after 48 hrs by Annexin V-FITC/propidium iodide staining based flow cytometry (reference value: 0.79%); type: functional
[22] = tested on: HCT-116; assay: Induction of apoptosis in human HCT116 cells assessed as late apoptotic cells at 2 uM after 48 hrs by Annexin V-FITC/propidium iodide staining based flow cytometry (reference value: 1.43%); type: functional
[23] = tested on: HCT-116; assay: Downregulation of CDK2 protein expression in human HCT116 cells at 0.5 to 2 uM after 24 hrs by Western blot analysis; type: functional, cell-based
[24] = tested on: HCT-116; assay: Induction of apoptosis in human HCT116 cells assessed as increase in cytochrome C level at 1 to 4 uM after 48 hrs by Western blot analysis; type: functional, cell-based
[25] = molecular target: Phosphatidylinositol 4,5-bisphosphate 3-kinase catalytic subunit alpha isoform (Homo sapiens) (UniProt P42336); assay: Inhibition of PI3Kalpha in human HCT116 cells assessed as reduction in GSK3beta phosphorylation after 24 hrs by Western blot analysis; type: cell-based
[26] = tested on: HCT-116; assay: Induction of apoptosis in human HCT116 cells assessed as increase in Bax level at 1 to 4 uM after 48 hrs by Western blot analysis; type: functional, cell-based
[27] = molecular target: PI3-kinase p110-alpha/p85-alpha (Homo sapiens, UniProt P42336); assay: Inhibition of recombinant N-terminal His6-tagged full length PI3K p110alpha (unknown origin)/recombinant untagged full length p85alpha (unknown origin) expressed in baculovirus infected Sf21 insect cells by ELISA
[28] = tested on: HCT-116; assay: Cell cycle arrest in human HCT116 cells assessed as accumulation at S phase at 0.5 uM after 24 hrs by propidium iodide staining based flow cytometry (reference value: 11.36%); type: functional
[29] = tested on: MRC5; assay: Antiproliferative activity against human MRC5 cells after 72 hrs by sulforhodamine B assay; type: cell-based; settings: MRC5, 72 h
[30] = molecular target: PI3-kinase p110-delta/p85-alpha (Homo sapiens, UniProt O00329); assay: Inhibition of recombinant N-terminal full length human PI3K p110delta/recombinant untagged full length human p85alpha expressed in baculovirus infected Sf21 insect cells by ELISA
[31] = tested on: HCT-116; assay: Induction of apoptosis in human HCT116 cells assessed as early apoptotic cells at 2 uM after 48 hrs by Annexin V-FITC/propidium iodide staining based flow cytometry (reference value: 3.72%); type: functional
[32] = tested on: HEK293; assay: Antiproliferative activity against HEK293 cells after 72 hrs by sulforhodamine B assay; type: cell-based; settings: Homo sapiens, HEK293, 72 h
[33] = tested on: HCT-116; assay: Cell cycle arrest in human HCT116 cells assessed as accumulation at S phase at 1 uM after 24 hrs by propidium iodide staining based flow cytometry (reference value: 11.36%); type: functional
[34] = molecular target: Phosphatidylinositol 4,5-bisphosphate 3-kinase catalytic subunit gamma isoform (Homo sapiens, UniProt P48736); assay: Inhibition of recombinant human N-terminal His6-tagged full length PI3K p120gamma expressed in baculovirus infected Sf21 insect cells by ELISA
[35] = tested on: HCT-116; assay: Induction of apoptosis in human HCT116 cells assessed as decrease in Bcl-2 level at 1 to 4 uM after 48 hrs by Western blot analysis; type: functional, cell-based
[36] = tested on: HCT-116; assay: Cell cycle arrest in human HCT116 cells assessed as accumulation at G2/M phase at 0.5 uM after 24 hrs by propidium iodide staining based flow cytometry (reference value: 22.24%); type: functional
[37] = tested on: HCT-116; assay: Cell cycle arrest in human HCT116 cells assessed as accumulation at subG1 phase at 1 uM after 24 hrs by propidium iodide staining based flow cytometry (reference value: 2.25%); type: functional
[38] = tested on: HCT-116; assay: Induction of apoptosis in human HCT116 cells assessed as viable cells at 4 uM after 48 hrs by Annexin V-FITC/propidium iodide staining based flow cytometry (reference value: 94.06%); type: functional; settings: HCT-116, 48 h, read-out: Activity
[39] = tested on: HCT-116; assay: Cell cycle arrest in human HCT116 cells assessed as accumulation at G0/G1 phase at 0.5 uM after 24 hrs by propidium iodide staining based flow cytometry (reference value: 44.01%); type: functional
[40] = tested on: HCT-116; assay: Cell cycle arrest in human HCT116 cells assessed as accumulation at subG1 phase at 2 uM after 24 hrs by propidium iodide staining based flow cytometry (reference value: 2.25%); type: functional
[41] = tested on: HCT-116; assay: Induction of apoptosis in human HCT116 cells assessed as necrotic cells at 2 uM after 48 hrs by Annexin V-FITC/propidium iodide staining based flow cytometry (reference value: 0.79%); type: functional
[42] = tested on: HCT-116; assay: Induction of apoptosis in human HCT116 cells assessed as early apoptotic cells at 4 uM after 48 hrs by Annexin V-FITC/propidium iodide staining based flow cytometry (reference value: 3.72%); type: functional
[43] = tested on: HCT-116; assay: Upregulation of p27 protein expression in human HCT116 cells at 0.5 to 2 uM after 24 hrs by Western blot analysis; type: functional, cell-based
[44] = tested on: HCT-116; assay: Induction of apoptosis in human HCT116 cells assessed as increase in cleaved caspase 9 level at 4 uM after 48 hrs by Western blot analysis; type: functional, cell-based
[45] = tested on: HCT-116; assay: Cell cycle arrest in human HCT116 cells assessed as accumulation at G0/G1 phase at 2 uM after 24 hrs by propidium iodide staining based flow cytometry (reference value: 44.01%); type: functional
[46] = tested on: HCT-116; assay: Cell cycle arrest in human HCT116 cells assessed as accumulation at G2/M phase at 2 uM after 24 hrs by propidium iodide staining based flow cytometry (reference value: 22.24%); type: functional
[47] = molecular target: Phosphatidylinositol 4,5-bisphosphate 3-kinase catalytic subunit alpha isoform (Homo sapiens) (UniProt P42336); assay: Inhibition of PI3Kalpha in human HCT116 cells assessed as reduction in Akt expression level at Ser473 residues at 1 uM after 8 hrs by DAPI staining based confocal microscopy; type: cell-based
[48] = tested on: HCT-116; assay: Induction of apoptosis in human HCT116 cells assessed as viable cells at 1 uM after 48 hrs by Annexin V-FITC/propidium iodide staining based flow cytometry (reference value: 94.06%); type: functional; settings: HCT-116, 48 h, read-out: Activity
[49] = tested on: HCT-116; assay: Induction of apoptosis in human HCT116 cells assessed as late apoptotic cells at 1 uM after 48 hrs by Annexin V-FITC/propidium iodide staining based flow cytometry (reference value: 1.43%); type: functional
[50] = tested on: HCT-116; assay: Induction of apoptosis in human HCT116 cells assessed as viable cells at 2 uM after 48 hrs by Annexin V-FITC/propidium iodide staining based flow cytometry (reference value: 94.06%); type: functional; settings: HCT-116, 48 h, read-out: Activity
[51] = tested on: HCT-116; assay: Cell cycle arrest in human HCT116 cells assessed as accumulation at S phase at 2 uM after 24 hrs by propidium iodide staining based flow cytometry (reference value: 11.36%); type: functional

Chain of Phosphatidylinositol 4,5-bisphosphate 3-kinase catalytic subunit alpha isoform (Homo sapiens) (P42336 whole entry, canonical isoform): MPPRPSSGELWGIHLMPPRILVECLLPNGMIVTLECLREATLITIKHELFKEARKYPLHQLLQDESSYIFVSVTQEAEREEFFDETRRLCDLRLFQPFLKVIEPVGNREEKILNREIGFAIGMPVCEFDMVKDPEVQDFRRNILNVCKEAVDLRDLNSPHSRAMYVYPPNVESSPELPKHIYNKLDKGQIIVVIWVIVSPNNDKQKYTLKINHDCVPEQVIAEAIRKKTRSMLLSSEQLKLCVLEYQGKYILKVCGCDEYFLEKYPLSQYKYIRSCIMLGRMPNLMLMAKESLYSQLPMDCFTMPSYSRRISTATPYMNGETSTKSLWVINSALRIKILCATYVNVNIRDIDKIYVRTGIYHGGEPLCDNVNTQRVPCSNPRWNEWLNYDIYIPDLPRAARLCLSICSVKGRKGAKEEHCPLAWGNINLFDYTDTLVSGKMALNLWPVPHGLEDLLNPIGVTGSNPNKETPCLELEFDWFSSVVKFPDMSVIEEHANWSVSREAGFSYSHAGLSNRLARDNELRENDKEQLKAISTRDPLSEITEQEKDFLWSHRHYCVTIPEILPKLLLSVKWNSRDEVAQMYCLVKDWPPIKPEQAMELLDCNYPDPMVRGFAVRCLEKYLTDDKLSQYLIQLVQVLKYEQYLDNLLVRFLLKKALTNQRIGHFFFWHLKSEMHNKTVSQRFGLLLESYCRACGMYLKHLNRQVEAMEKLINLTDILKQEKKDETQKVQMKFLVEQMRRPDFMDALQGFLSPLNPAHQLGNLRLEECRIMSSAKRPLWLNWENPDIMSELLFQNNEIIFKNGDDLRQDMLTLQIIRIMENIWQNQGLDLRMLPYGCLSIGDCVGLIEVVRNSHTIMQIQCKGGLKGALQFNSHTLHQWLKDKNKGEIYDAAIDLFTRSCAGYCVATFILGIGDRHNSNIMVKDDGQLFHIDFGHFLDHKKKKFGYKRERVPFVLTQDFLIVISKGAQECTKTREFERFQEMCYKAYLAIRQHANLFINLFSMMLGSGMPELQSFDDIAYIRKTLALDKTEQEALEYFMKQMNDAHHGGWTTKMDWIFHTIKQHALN
Chain of PI3-kinase p110-alpha/p85-alpha (P27986 whole entry): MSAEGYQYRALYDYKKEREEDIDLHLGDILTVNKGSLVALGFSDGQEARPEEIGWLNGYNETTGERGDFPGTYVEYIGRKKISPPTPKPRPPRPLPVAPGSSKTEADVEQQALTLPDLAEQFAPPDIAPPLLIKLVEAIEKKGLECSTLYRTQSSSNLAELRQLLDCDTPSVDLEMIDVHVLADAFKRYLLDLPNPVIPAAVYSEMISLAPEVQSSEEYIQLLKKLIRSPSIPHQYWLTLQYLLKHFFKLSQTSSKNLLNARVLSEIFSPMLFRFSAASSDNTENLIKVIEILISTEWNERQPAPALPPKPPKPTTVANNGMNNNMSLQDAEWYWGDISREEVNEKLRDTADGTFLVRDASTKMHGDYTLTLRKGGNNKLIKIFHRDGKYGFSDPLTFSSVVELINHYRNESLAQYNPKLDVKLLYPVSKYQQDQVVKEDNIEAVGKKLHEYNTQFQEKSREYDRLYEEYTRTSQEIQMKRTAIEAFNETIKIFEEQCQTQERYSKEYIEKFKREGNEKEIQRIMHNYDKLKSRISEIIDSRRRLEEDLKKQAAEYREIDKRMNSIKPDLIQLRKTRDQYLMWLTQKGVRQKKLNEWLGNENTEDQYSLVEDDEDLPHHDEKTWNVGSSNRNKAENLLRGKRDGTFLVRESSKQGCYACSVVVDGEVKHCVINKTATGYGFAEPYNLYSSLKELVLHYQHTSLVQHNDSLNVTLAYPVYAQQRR
Chain of PI3-kinase p110-alpha/p85-alpha (P42336 whole entry): as the sequence (P42336 whole entry, canonical isoform) above
Chain of PI3-kinase p110-delta/p85-alpha (P27986 whole entry): as the sequence (P27986 whole entry) above
Chain of PI3-kinase p110-delta/p85-alpha (O00329 whole entry): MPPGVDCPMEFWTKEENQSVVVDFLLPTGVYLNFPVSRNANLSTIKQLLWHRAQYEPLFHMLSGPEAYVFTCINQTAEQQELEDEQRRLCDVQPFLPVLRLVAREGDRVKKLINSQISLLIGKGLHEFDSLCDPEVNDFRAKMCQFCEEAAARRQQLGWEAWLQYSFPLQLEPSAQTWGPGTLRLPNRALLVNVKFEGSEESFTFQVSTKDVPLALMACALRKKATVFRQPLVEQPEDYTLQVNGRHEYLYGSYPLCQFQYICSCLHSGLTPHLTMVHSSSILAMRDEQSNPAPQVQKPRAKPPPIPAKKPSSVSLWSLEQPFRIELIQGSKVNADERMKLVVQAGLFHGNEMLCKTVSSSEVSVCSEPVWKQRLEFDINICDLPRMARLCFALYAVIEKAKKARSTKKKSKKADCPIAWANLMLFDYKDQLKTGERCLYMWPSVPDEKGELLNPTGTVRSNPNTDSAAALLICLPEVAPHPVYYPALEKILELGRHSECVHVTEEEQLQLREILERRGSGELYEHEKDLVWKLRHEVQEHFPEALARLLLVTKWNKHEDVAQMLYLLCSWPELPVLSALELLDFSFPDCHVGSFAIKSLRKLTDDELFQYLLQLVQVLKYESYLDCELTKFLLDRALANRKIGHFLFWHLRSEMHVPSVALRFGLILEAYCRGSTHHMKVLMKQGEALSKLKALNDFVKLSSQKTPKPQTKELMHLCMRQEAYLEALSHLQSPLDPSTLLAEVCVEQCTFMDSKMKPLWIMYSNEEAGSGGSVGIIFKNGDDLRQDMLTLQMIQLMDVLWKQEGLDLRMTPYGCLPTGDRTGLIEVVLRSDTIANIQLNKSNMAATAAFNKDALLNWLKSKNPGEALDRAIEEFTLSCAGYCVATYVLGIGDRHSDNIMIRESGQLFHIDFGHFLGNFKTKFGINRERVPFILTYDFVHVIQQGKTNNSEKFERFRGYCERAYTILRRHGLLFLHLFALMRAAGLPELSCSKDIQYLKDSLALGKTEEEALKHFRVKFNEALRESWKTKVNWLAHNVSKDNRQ
Chain of PI3K p110 beta/p85 alpha (P27986 whole entry): as the sequence (P27986 whole entry) above
Chain of PI3K p110 beta/p85 alpha (P42338 whole entry): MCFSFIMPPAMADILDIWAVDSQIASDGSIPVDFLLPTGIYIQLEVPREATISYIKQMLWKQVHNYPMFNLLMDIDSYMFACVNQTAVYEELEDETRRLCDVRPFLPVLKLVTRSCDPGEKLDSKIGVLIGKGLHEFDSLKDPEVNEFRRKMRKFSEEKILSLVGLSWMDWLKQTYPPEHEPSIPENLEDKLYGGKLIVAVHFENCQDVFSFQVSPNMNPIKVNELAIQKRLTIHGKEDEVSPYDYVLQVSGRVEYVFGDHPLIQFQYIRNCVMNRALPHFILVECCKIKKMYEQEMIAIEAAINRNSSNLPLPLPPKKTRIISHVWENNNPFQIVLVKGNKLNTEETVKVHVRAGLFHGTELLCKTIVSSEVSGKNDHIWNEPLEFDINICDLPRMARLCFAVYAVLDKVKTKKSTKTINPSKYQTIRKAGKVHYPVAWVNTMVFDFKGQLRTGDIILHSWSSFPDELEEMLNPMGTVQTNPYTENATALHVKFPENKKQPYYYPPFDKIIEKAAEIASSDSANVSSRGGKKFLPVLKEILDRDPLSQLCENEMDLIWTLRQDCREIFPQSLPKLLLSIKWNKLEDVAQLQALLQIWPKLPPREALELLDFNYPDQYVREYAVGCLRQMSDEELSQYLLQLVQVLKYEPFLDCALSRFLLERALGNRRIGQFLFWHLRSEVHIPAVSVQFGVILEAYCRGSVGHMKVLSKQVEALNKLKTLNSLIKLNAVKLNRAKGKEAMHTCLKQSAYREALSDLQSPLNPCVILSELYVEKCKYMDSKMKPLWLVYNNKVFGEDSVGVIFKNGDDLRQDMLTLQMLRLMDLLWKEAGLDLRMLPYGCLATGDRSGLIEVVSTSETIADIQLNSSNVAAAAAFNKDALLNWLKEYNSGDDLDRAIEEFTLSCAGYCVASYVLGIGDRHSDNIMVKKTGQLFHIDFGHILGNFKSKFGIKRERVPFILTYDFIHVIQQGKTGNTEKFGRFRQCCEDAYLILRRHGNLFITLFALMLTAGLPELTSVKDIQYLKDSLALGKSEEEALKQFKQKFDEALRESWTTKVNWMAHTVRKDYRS

- IC50 [1]: 9710 nM
- IC50 [2]: 17600 nM
- IC50 [3]: 6210 nM
- IC50 [4]: 11400 nM
- IC50 [5]: 22500 nM
- IC50 [6]: 12400 nM
Compound: COc1ncc(-c2ccc3ncnc(NCc4ccncc4)c3c2)cc1NS(=O)(=O)c1ccc(F)cc1F

- IC50 [1]: 880 nM
- IC50 [2]: 490 nM
- IC50 [3]: 1260 nM
- IC50 [4]: 3520 nM
- IC50 [5]: 4730 nM
- IC50 [6]: 860 nM
Compound: CCCCS(=O)(=O)Nc1cc(-c2ccc3ncnc(NCCCN(C)C)c3c2)cnc1OC

- inhibition [7]: Active
- IC50 [1]: 280 nM
- inhibition [10]: Active
- inhibition [11]: Dose-dependent effect
- IC50 [14]: 396 nM
- inhibition [16]: Active
- IC50 [2]: 160 nM
- inhibition [25]: Dose-dependent effect
- IC50 [3]: 480 nM
- IC50 [4]: 1320 nM
- IC50 [27]: 13.6 nM
- IC50 [5]: 3240 nM
- IC50 [30]: 102 nM
- IC50 [6]: 280 nM
- IC50 [34]: 117 nM
- inhibition [47]: Active
Compound: CCCCS(=O)(=O)Nc1cc(-c2ccc3ncnc(NCCN(C)C)c3c2)cnc1OC
- Activity [8]: 4.6%
- Activity [9]: Active
- Activity [12]: 15.33%
- Activity [13]: Active
- Activity [15]: 10.13%
- Activity [17]: 1.5%
- Activity [18]: Active
- Activity [19]: 54.1%
- Activity [20]: 3.57%
- Activity [21]: 1.02%
- Activity [22]: 3.7%
- Activity [23]: Active
- Activity [24]: Active
- Activity [26]: Active
- Activity [28]: 10.3%
- IC50 [29]: 18500 nM
- Activity [31]: 10.2%
- IC50 [32]: 12600 nM
- Activity [33]: 13.02%
- Activity [35]: Active
- Activity [36]: 20.53%
- Activity [37]: 2.91%
- viability at 4 µM [38]: 83.3%
- Activity [39]: 46.16%
- Activity [40]: 2.51%
- Activity [41]: 1.39%
- Activity [42]: 11.11%
- Activity [43]: Active
- Activity [44]: Active
- Activity [45]: 61.01%
- Activity [46]: 10.99%
- viability at 1 µM [48]: 85.5%
- Activity [49]: 2.89%
- viability at 2 µM [50]: 84.7%
- Activity [51]: 13.65%
